Test [1] deals with T1, human soluble TNFR1 (sTNFR1) (Homo sapiens, UniProt P19438).
T1 construct: made in house; host or cells: Sf21 (baculovirus)
T1 sequence (P19438 with tags, fused parts or gaps): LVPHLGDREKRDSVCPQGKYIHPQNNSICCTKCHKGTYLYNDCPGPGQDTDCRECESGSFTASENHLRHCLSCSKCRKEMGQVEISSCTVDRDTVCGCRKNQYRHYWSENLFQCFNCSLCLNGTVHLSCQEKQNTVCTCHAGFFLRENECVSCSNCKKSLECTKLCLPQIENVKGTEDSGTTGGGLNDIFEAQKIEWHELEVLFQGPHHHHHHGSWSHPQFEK
The experiment in a line: Human sTNFR1-peptide displacement assay (LanthaScreen Eu TR-FRET binding assay). In short, it runs like this: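 Readout is the 665/615 nm TR-FRET ratio (Eu anti-His donor, streptavidin-Alexa647 acceptor), normalized to DMSO and saturating displacer, fit by Morrison-based five-parameter logistic for Kd^app. His-tagged sTNFR1 (1-211) prebound to 100 nM biotinylated peptide SEQ ID NO.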

Test [2] concerns the target T2, human TNFR1 extracellular domain (ECD) protein (Homo sapiens, UniProt P19438).
T2 construct: HRV 3C protease cleavage site (C); 6His (C, cleaved yes); made in house; host or cells: Sf21 insect cells (baculovirus), secreted
T2 sequence (P19438 30-211): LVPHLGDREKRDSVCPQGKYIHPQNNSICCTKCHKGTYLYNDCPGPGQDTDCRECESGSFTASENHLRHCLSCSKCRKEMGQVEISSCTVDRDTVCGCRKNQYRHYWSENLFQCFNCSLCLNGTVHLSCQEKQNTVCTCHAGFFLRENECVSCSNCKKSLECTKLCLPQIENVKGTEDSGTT
Kind of test: SPR binding affinity to captured human TNFR1 ECD. An outline of the steps: (§1)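 Biotinylated avi-tagged human TNFR1 or TNFR2 ECD, expressed in Sf21 insect cells, captured on streptavidin SPR chip; peptide analytes run in 10 mM HEPES pH 7.4, 150 mM NaCl, 3 mM EDTA, 0.05% P20, 2% DMSO. kon and koff measured, affinity KA calculated.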
Background: Surface plasmon resonance follows binding to a sensor surface in real time, without labels.

Test [3] addresses T3, human TNFR2 ECD protein (Homo sapiens, UniProt P20333).
T3 construct: HRV 3C protease cleavage site (C); 6His (C, cleaved yes); made in house; host or cells: Sf21 insect cells (baculovirus), secreted
T3 sequence (P20333 23-257): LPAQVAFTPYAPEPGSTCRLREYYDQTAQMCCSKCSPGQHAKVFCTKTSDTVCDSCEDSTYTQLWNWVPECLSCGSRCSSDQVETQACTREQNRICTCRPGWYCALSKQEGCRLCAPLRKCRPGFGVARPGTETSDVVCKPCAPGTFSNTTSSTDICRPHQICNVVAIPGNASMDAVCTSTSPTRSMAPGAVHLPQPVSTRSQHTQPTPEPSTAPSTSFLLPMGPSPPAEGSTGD
The experiment in a line: SPR off-target binding (selectivity) to human TNFR2 ECD. In short, it runs like this: as §1

The source of these data is patent US20240287138A1, “CYCLIC PEPTIDES FOR INHIBITING TNF RECEPTOR 1 ACTIVITY” (Merck Sharp & Dohme LLC, priority 2023, published 2024).

Numbered stars: 1 amine (or outer) side, 2 acyl side, 3 side chain; on linkers, the order of the positions; unused ones are H or OH. Square brackets hold non-standard residues; d marks the D form. Peptide text beside a SMILES is read from it. * marks the point of attachment. Trp(βS-Me,7-OMe) = COc1cccc2c([C@H](C)[C@H](N)C(=O)O)c[nH]c12; X24 = O=C(O)c1ccc([C@@H](O)[C@H](N[*:1])C(=O)[*:2])cc1; X28 = NC(=O)c1ccc([C@H](O)[C@H](N[*:1])C(=O)[*:2])cc1; Trp(7-CN) = N#Cc1cccc2c(C[C@H](N)C(=O)O)c[nH]c12; Trp(7-Cl) = N[C@@H](Cc1c[nH]c2c(Cl)cccc12)C(=O)O; X29 = NC(=O)Cc1cccc(C[C@H](N[*:1])C(=O)[*:2])c1; Phe(4-CONH2) = NC(=O)c1ccc(C[C@H](N)C(=O)O)cc1; Phe(4-COOH) = N[C@@H](Cc1ccc(C(=O)O)cc1)C(=O)O; Trp(7-aza) = N[C@@H](Cc1c[nH]c2ncccc12)C(=O)O; dPro(4S-NH2) = N[C@@H]1CN[C@@H](C(=O)O)C1; Pip(5R-OH) = O=C(O)[C@@H]1CC[C@@H](O)CN1; X1 = O=C([C@@H]1CC[C@H](N[*:1])C1)[*:2]; Pip(4-aza) = O=C(O)[C@@H]1CNCCN1; 4Pal = N[C@@H](Cc1ccncc1)C(=O)O; NMeE = CN[C@@H](CCC(=O)O)C(=O)O; dHyp = O=C(O)[C@H]1C[C@H](O)CN1; αMeS = C[C@](N)(CO)C(=O)O; Nle = CCCC[C@H](N)C(=O)O; Ethyl(2-NH2) = NCC*; Sar = CNCC(=O)O; X22 = C1CC1C*

A word on the Kd: it is a measure of binding affinity in units of concentration. With `CCCC[C@@H]1NC(=O)[C@@H]2CC[C@@H](C2)NC(=O)[C@H]([C@@H](C)c2c[nH]c3c(OC)cccc23)NC(=O)CN(C)C(=O)[C@H](Cc2ccc(O)cc2)NC(=O)[C@H](Cc2ccc(C(N)=O)cc2)NC(=O)[C@](C)(CO)NC(=O)[C@H](Cc2c[nH]c3c(Cl)cccc23)NC(=O)[C@H](Cc2ccncc2)NC(=O)[C@H](CC(N)=O)NC(=O)[C@H]2C[C@H](N)CN2C(=O)[C@H](Cc2c[nH]c3ccccc23)NC(=O)[C@@H]2CC[C@@H](O)CN2C(=O)[C@H](Cc2ccncc2)NC1=O` [SEQ ID NO. 144] (cyclo([4Pal][Trp(7-Cl)][αMeS][Phe(4-CONH2)]Y[Sar][Trp(βS-Me,7-OMe)][X1][Nle][4Pal][Pip(5R-OH)]W[dPro(4S-NH2)]N)), the Kd in test [1] was 0.07 nM; in test [2], 0.1 nM; in test [3] it was greater than 1000 nM.

In the case of `COc1cccc2c([C@H](C)[C@@H]3NC(=O)CN(C)C(=O)[C@H](Cc4ccc(C(=O)O)cc4)NC(=O)[C@H](Cc4ccc(C(N)=O)cc4)NC(=O)[C@](C)(CO)NC(=O)[C@H](Cc4c[nH]c5c(Cl)cccc45)NC(=O)[C@H](Cc4ccc(C(=O)O)cc4)NC(=O)[C@H](CC(N)=O)NC(=O)[C@H]4C[C@H](O)CN4C(=O)[C@H](Cc4c[nH]c5ncccc45)NC(=O)[C@@H]4CC[C@@H](O)CN4C(=O)[C@H](Cc4ccncc4)NC(=O)[C@H](COCCN)NC(=O)[C@@H]4CC[C@@H](C4)NC3=O)c[nH]c12` [SEQ ID NO. 148] (cyclo([4Pal][Pip(5R-OH)][Trp(7-aza)][dHyp]N[Phe(4-COOH)][Trp(7-Cl)][αMeS][Phe(4-CONH2)][Phe(4-COOH)][Sar][Trp(βS-Me,7-OMe)][X1]S(Ethyl(2-NH2)))), the results for the Kd in test [1], in test [2] and in test [3] were 0.9 nM, 1.1 nM and greater than 1000 nM, respectively.

Turning to `COc1cccc2c([C@H](C)[C@@H]3NC(=O)CN(C)C(=O)[C@H](Cc4ccc(C(=O)O)cc4)NC(=O)[C@H](Cc4ccc(C(N)=O)cc4)NC(=O)[C@](C)(CO)NC(=O)[C@H](Cc4c[nH]c5c(C#N)cccc45)NC(=O)[C@H](Cc4ccc(C(=O)O)cc4)NC(=O)[C@H](CC(N)=O)NC(=O)[C@H]4C[C@H](O)CN4C(=O)[C@H](Cc4c[nH]c5ncccc45)NC(=O)[C@@H]4CC[C@@H](O)CN4C(=O)[C@H](Cc4ccncc4)NC(=O)[C@H](COCC4CC4)NC(=O)[C@@H]4CC[C@@H](C4)NC3=O)c[nH]c12` [SEQ ID NO. 149] (cyclo([4Pal][Pip(5R-OH)][Trp(7-aza)][dHyp]N[Phe(4-COOH)][Trp(7-CN)][αMeS][Phe(4-CONH2)][Phe(4-COOH)][Sar][Trp(βS-Me,7-OMe)][X1]S(X22))), the dissociation constant (Kd) was 0.21 nM in test [1], 0.18 nM in test [2] and greater than 1000 nM in test [3].

`CCCC[C@@H]1NC(=O)[C@@H]2CC[C@@H](C2)NC(=O)[C@H]([C@@H](C)c2c[nH]c3c(OC)cccc23)NC(=O)CN(C)C(=O)[C@H](Cc2cccc(CC(N)=O)c2)NC(=O)[C@H](Cc2ccc(C(=O)O)cc2)NC(=O)[C@](C)(CO)NC(=O)[C@H](Cc2c[nH]c3c(Cl)cccc23)NC(=O)[C@H](Cc2ccncc2)NC(=O)[C@H](CC(N)=O)NC(=O)[C@H](CCC(=O)O)N(C)C(=O)[C@H](Cc2c[nH]c3ccccc23)NC(=O)[C@@H]2CNCCN2C(=O)[C@H](Cc2ccncc2)NC1=O` [SEQ ID NO. 153] (cyclo([4Pal][Trp(7-Cl)][αMeS][Phe(4-COOH)][X29][Sar][Trp(βS-Me,7-OMe)][X1][Nle][4Pal][Pip(4-aza)]W[NMeE]N)): the results for the equilibrium dissociation constant (Kd) in test [1], in test [2] and in test [3] were 0.23 nM, 0.16 nM and greater than 1000 nM, respectively.

With `CCCC[C@@H]1NC(=O)[C@@H]2CC[C@@H](C2)NC(=O)[C@H]([C@@H](C)c2c[nH]c3c(OC)cccc23)NC(=O)CN(C)C(=O)[C@H]([C@H](O)c2ccc(C(=O)O)cc2)NC(=O)[C@H]([C@@H](O)c2ccc(C(N)=O)cc2)NC(=O)[C@](C)(CO)NC(=O)[C@H](Cc2c[nH]c3c(C#N)cccc23)NC(=O)[C@H](Cc2ccncc2)NC(=O)[C@H](CC(N)=O)NC(=O)[C@H]2C[C@H](O)CN2C(=O)[C@H](Cc2c[nH]c3ccccc23)NC(=O)[C@@H]2CC[C@@H](O)CN2C(=O)[C@H](Cc2ccncc2)NC1=O` [SEQ ID NO. 155] (cyclo([4Pal][Trp(7-CN)][αMeS][X28][X24][Sar][Trp(βS-Me,7-OMe)][X1][Nle][4Pal][Pip(5R-OH)]W[dHyp]N)), the equilibrium dissociation constant (Kd) is 0.1 nM in test [1], 0.02 nM in test [2] and greater than 1000 nM in test [3].
